Measured values taken from US8586125B2, “Thermal treatment of an implantable medical device” (Advanced Cardiovascular Systems, Inc., priority 1999, dated 2013).
Where “and” joins values, the source holds several entries; their conditions need not be identical. Equal entries are not always repeated. Starred links: 1 amine or outer side, 2 acyl side, 3 side chain; linkers in the order of their positions; H or OH if unused. Positions of bridges follow the written chain, without caps; N, C: chain ends. Non-standard residues stand in square brackets, D forms with d. Residues, ends and D or L forms follow the SMILES beside them. Chains are numbered I, II in the order given. Actinocin(9to1) = Cc1c2oc3c(C)ccc(C(=O)[*:1])c3nc-2c(C(=O)[*:2])c(N)c1=O; NMeV = CN[C@H](C(=O)O)C(C)C; Sar = CNCC(=O)O

What was measured:
[1] = Release Rate Profile Procedure (in vitro, HPLC); format: physicochemical; conditions: as demonstrated in Example 53
Procedure: This Example 41 is referred to as the “Release Rate Profile Procedure.” A drug-coated stent was placed on a stent holder of a Vankel Bio-Dis release rate tester (Vankel, Inc., Cary, N.C.). The stent was dipped into an artificial medium which stabilizes the 40-O-(2-hydroxy)ethyl-rapamycin in the testing solution, including a phosphate buffer saline solution (10 mM, pH 7.4) with 1% TRITON X-100 (Sigma Corporation), for a designated amount of time (e.g., 3 hours). Then the solution was analyzed for the amount of drug released from the stent coating using an HPLC process. The HPLC system consisted of a Waters 2690 system with an analytical pump, a column compartment (set at 40° C.), an auto-sampler, and a 996 PDA detector. The column was an YMC Pro C18 (150 mm×4.6 I.D., 3 μm particle size), maintained at a temperature of 40° C. The mobile phase consisted of 75% acetonitrile and 25% 20 mMolar ammonium acetate. […] After the drug solution was analyzed by HPLC the results were quantified by comparing the release rate results with a reference standard.
If the experimental protocol required that the stent coating be subjected to experimental conditions for an additional time, the stent was then dipped in a fresh medium solution for the necessary amount of time (e.g., another 3 hours) and the drug released in the solution was analyzed again according to the HPLC procedure described above. […]

[2] = Release rate from a standard polymeric coating; format: physicochemical; conditions: in about 24 hours
From the text: Another potential shortcoming of the foregoing method of medicating stents is that the release rate of the active agent may be too high to provide an efficacious treatment. This shortcoming may be especially pronounced with certain active agents. […] Thus, there is a need for a coating that reduces the release rate of active agents in order to provide a more efficacious release rate profile.

[3] = tested on: Porcine Coronary Artery Model; assay: Reduction in restenosis in the porcine coronary artery model, drug delivered with microporous balloon catheter; format: in vivo, Domestic swine; conditions: for Percent Diameter Stenosis (QCA): 28-day endpoint; for Percent Stenosis (IEL area-lumen area)/IEL area / Residual Lumen (Lumen area)/IEL area: histomorphometric
Procedure: Porcine coronary models were used to assess the degree of the inhibition of neointimal formation in the coronary arteries of a porcine stent injury model by actinomycin D, delivered with a microporous balloon catheter (1×10^6 pores/mm^2 with sizes ranging from 0.2-0.8 micron).
The preclinical animal testing was performed in accordance with the NIH Guide for Care and Use of Laboratory Animals. Domestic swine were utilized to evaluate effect of the drug on the inhibition of the neointimal formation. Each testing procedure, excluding the angiographic analysis at the follow-up endpoints, was conducted using sterile techniques. During the study procedure, the activated clotting time (ACT) was monitored regularly to ensure appropriate anticoagulation. Base line blood samples were collected for each animal before initiation of the procedure. Quantitative coronary angiographic analysis (QCA) and intravascular ultrasound (IVUS) analysis was used for vessel size assessment.
The vessels at the sites of the delivery were denuded by inflation of the PTCA balloons to 1:1 balloon to artery ratio and moving the balloons back and forth 5 times. The drug was delivered to the denuded sites at 3.5 atm (3.61 Kg/sq cm) for 2 minutes using the microporous balloon catheters before stent deployment. The average volume of delivery was about 3.3+/−1.2 ml. Following drug delivery, stents were deployed at the delivery site such that final stent to artery ratio was 1.1:1.
QCA and IVUS analyses were used for stent deployment guidance. Pre-stenting IVUS measurements of the lumen size at the targeted vessel sites were performed for determination of the balloon (size) inflation pressure. Quantitative analysis of the stented coronary arteries to compare pre-stenting, post-stenting, follow-up minimal luminal diameters, stent recoil, and balloon/stent to artery ratio were performed. Following stent implantation and final angiogram, all devices were withdrawn and the wounds closed; the animals were allowed to recover from anesthesia as managed by the attending veterinarian or animal care professionals at the research center.
Upon return to the research laboratory at the 28-day endpoint, angiographic assessments were performed. Coronary artery blood flow was assessed and the stented vessels were evaluated to determine minimal lumen diameter. The animals were euthanized following this procedure at the endpoint. Following euthanasia, the hearts were pressure perfusion fixed with formalin and prepared for histological analysis, encompassing light microscopy, and morphometry. Morphometric analysis of the stented arteries included assessment of the position of the stent struts and determination of vessel/lumen areas, percent (%) stenosis, injury scores, intimal and medial areas and intima/media ratios. Percent stenosis is quantitated by the following equation: 100(IEL area−lumen area)/IEL area
where IEL is the internal elastic lamia.
The control group of animals received delivery of water instead of the drug. The test group of animals received actinomycin D in two different concentration of 10^−5M and 10^−4M. […] FIGS. 9A and 9B illustrate sample pictures of the histology slides of the coronary vessels from the control and the Dose 1 group, respectively.

[4] = tested on: Medial smooth muscle cells (SMC); assay: Inhibition of SMC proliferation, thymidine incorporation; format: cell-based; conditions: Rattus norvegicus, 2 h, read-out: IC50 (concentration at which 50% of the cells stop proliferating)
Procedure: Medial smooth muscle cells (SMC) were isolated from rat aorta and cultured according to explant methods known to one of ordinary skill in the art. Cells were harvested via trypsinization and subcultivated. Cells were identified as vascular SMC through their characteristic hill-and-valley growth pattern as well as indirect immunofluorescence with monoclonal anti SMC α-actin. Studies were performed with cells at passage 3-4. SMC monolayers were established on 24 well culture dishes, scrape wounded and treated with actinomycin D, mytomycin and docetaxel. The cells were exposed to the drug solution of different concentrations for 2 hours and then washed with buffered saline solution. The proliferation of the cells was quantified by standard technique of thymidine incorporation.
The IC50 (concentration at which 50% of the cells stop proliferating) of actimomycin D was 10^−9M as compared to 5×10^−5M for mitomycin and 10^−6M for docetaxel.

[5] = tested on: porcine coronary arteries; assay: Positive remodeling: actinomycin D/EVOH coated stents in porcine coronary arteries, 28 days; format: in vivo
From the text: In vivo data is provided illustrated positive remodeling caused by the application of actinomycin D. Stents coated with EVOH impregnated with actinomycin D and a control group of stents coated with EVOH free from actinomycin D were implanted in porcine coronary arteries. The animals were sacrificed at the end of 28 days. […] The index of remodeling was 1.076 (8.54/7.94).
FIGS. 10A and 10B illustrate sample pictures of the histology slides of the coronary vessels from the control group 64 RCA (Right Coronary […]) and the actinomycin D loaded stent group 68 LAD (Left Anterior Descending), respectively. The stent used was an Advanced Cardiovascular Systems Multi-Link Duet™ (stainless steel). As is illustrated by FIG. 10B, the positive remodeling of EEL 80, caused by the application of actinomycin D, creates a gap between stent struts 82 and EEL 80. Thrombus deposits, illustrated by reference number 84, are formed in the gap over time. The use of a self-expandable stent eliminates the formation of the gap as the stent self-expands in response to the positive remodeling of IEL. Thrombus deposits can be, accordingly, eliminated.
Actinomycin D induces the positive remodeling of the vessel walls, more particularly positive remodeling of the external elastic lamina (EEL) of a blood vessel wall. Positive remodeling is generally defined as the ability of the vessel walls to structurally adapt, by increasing in lumen size, to chronic stimuli. A positively remodeled lumen wall has a greater diameter or size as compared to a lumen wall which has not been subjected to the remodeling effect. Accordingly, the flow of blood through the remodeled site is increased—flow which would have otherwise been reduced because of, for example, the presence of plaque build-up or migration and proliferation of cells. The index of remodeling is defined by the ratio of the area circumscribed by the EEL of the lesion site to the area circumscribed by the EEL of a reference site. As a result of the positive remodeling of the EEL, the internal elastic lamina (IEL), in response, can also increases in area or diameter. Actinomycin D, or analogs or derivative thereof, not only can inhibit abnormal or inappropriate migration and/or proliferation of smooth muscle cells, which can lead to restenosis, but can also induce positive remodeling of the blood vessel walls. Thus the widening of the diseased region becomes more pronounced.

coronary arteries = assay: Cephalotaxin/EVOH coated stents implanted in porcine coronary arteries; format: in vivo, pigs; conditions: cephalotaxin coated vs uncoated and EVOH coated stents; estimated 33 μg cephalotaxin per stent
Procedure: Multi-Link™ stents were cleaned by placement in an ultrasonic bath of isopropyl alcohol solution for 10 minutes. The stents were dried and plasma cleaned in a plasma chamber. An EVOH solution was made with 1 gram of EVOH and 7 grams of DMSO, making an EVOH:DMSO ratio of 1:7. Cephalotaxin was added to the 1:7 EVOH:DMSO solution. Cephalotaxin constituted 5% by weight of the total weight of the solution. The solution was vortexed and placed in a tube. The cleaned Multi-Link™ stents were attached to mandrel wires and dipped into the solution. The coated stents were passed over a hot plate, for about 3-5 seconds, with a temperature setting of about 60° C. The coated stents were cured for 6 hours in an air box then placed in a vacuum oven at 60° C. for 24 hours. The above process was repeated twice, having a total of three layers. The average weight of the coating was 0.00013 gram, with an estimated cephalotaxin concentration of 33 μg. The stents were sterilized by electron beam radiation. […]

[6] = average of vessel sections, 28 days
[7] = individual vessel sections (ID # animal, artery, d/m/p), 28 days

SMILES: CO[C@H]1C[C@@H]2CC[C@@H](C)[C@@](O)(O2)C(=O)C(=O)N2CCCC[C@H]2C(=O)O[C@H]([C@H](C)C[C@@H]2CC[C@@H](OCCO)[C@H](OC)C2)CC(=O)[C@H](C)/C=C(\C)[C@@H](O)[C@@H](OC)C(=O)[C@H](C)C[C@H](C)/C=C/C=C/C=C/1C [40-O-(2-hydroxy)ethyl-rapamycin]
- decrease of the release rate by thermal treatment as compared to a control group [1]: about 50%
- release rate from a standard polymeric coating [2]: greater than 50%

SMILES: Cc1c2oc3c(C)ccc(C(=O)N[C@@H]4C(=O)N[C@H](C(C)C)C(=O)N5CCC[C@H]5C(=O)N(C)CC(=O)N(C)[C@@H](C(C)C)C(=O)O[C@@H]4C)c3nc-2c(C(=O)N[C@@H]2C(=O)N[C@H](C(C)C)C(=O)N3CCC[C@H]3C(=O)N(C)CC(=O)N(C)[C@@H](C(C)C)C(=O)O[C@@H]2C)c(N)c1=O [actinomycin D] (I: T[dV]P[Sar][NMeV] / II: T[dV]P[Sar][NMeV]; ester I:1-I:C, II:1-II:C; linker I:N-II:N via Actinocin(9to1))
- Percent Diameter Stenosis (QCA) ([3]; DOSE 1 1E−05M (n = 10)): 36.8 +/− 9.7%
- Percent Diameter Stenosis (QCA) ([3]; DOSE 2 1E−04M (n = 7)): 32.3+/−11.7%
- Percent Stenosis (IEL area-lumen area)/IEL area ([3]; DOSE 1 1E−05M (n = 30)): 51.8 +/− 13.8%
- Residual Lumen (Lumen area)/IEL area ([3]; DOSE 1 1E−05M (n = 30)): 0.49 +/− 0.14
- Percent Stenosis (IEL area-lumen area)/IEL area ([3]; DOSE 2 1E−04M (n = 21)): 54.1 +/− 11.7%
- Residual Lumen (Lumen area)/IEL area ([3]; DOSE 2 1E−04M (n = 21)): 0.46 +/− 0.08
- IC50 [4]: 1 nM
- AVG % EEL growth ([5]; ActD vs EVOH): 7.486%
- AVG % IEL growth ([5]; ActD vs EVOH): 13.18%
- index of remodeling ([5]; EEL area drug coated / EVOH control (8.54/7.94), 28 days): 1.076
- EEL Area AVG [5, 6]: 8.5425 mm^2
- IEL Area AVG [5, 6]: 7.4727 mm2
- EEL Area [5, 7]: 9.2545 mm^2 and 9.2515 mm^2 and 8.7854 mm^2 and 9.5164 mm^2 and 9.1504 mm^2 and 9.6679 mm^2 and 9.1237 mm^2 and 9.9849 mm^2 and 9.4765 mm^2 and 7.4424 mm^2 and 9.1462 mm^2 and 8.9504 mm^2 and 8.9117 mm^2 and 8.7533 mm^2 and 7.3249 mm^2 and 7.1061 mm^2 and 8.5830 mm^2 and 7.4498 mm^2 and 8.2509 mm^2 and 7.7342 mm^2 and 7.9207 mm^2 and 6.9926 mm^2 and 8.3883 mm^2 and 7.8546 mm^2
- IEL Area [5, 7]: 8.3785 mm2 and 8.5819 mm2 and 8.0964 mm2 and 8.6879 mm2 and 8.0914 mm2 and 8.7181 mm2 and 8.0273 mm2 and 8.5222 mm2 and 8.3796 mm2 and 6.4219 mm2 and 7.7757 mm2 and 7.5392 mm2 and 7.6573 mm2 and 6.9749 mm2 and 6.2815 mm2 and 5.9760 mm2 and 7.6195 mm2 and 6.3785 mm2 and 7.5206 mm2 and 6.9992 mm2 and 6.9632 mm2 and 6.0418 mm2 and 7.4794 mm2 and 6.2324 mm2

SMILES: COC1=C[C@]23CCCN2CCc2cc4c(cc2[C@@H]3[C@@H]1O)OCO4 [cephalotaxin, Cephalotaxin]
- amount of neointimal proliferation resulting from arterial injury (coronary arteries): no significant difference
